Read-outs that look alike come from different tables or passages of the source.
Key:
[1] = system: HCT-116 p21^+/+ (wt) cells; assay: Growth inhibition (cell viability assay) of HCT-116 p21+/+ cells; details: for GI50: HCT-116 p21+/+
Method: (§1) Cell viability assay. Cells were plated into 96-well plates in 75 μL of media. After 24 h, a time-zero plate was produced by adding 25 μL of media and 20 μL of CellTiter-Blue® (Promega) to the wells, followed by incubation at 37° C. for 90 min. Fluorescence (544 nm excitation; 590 nm emission) was detected using a SPECTRAmax® Gemini XS to establish cell viability at time of dosing. Then, compounds were serially diluted in media and delivered to the cells as 4× solutions in 25 μL of media. At either 48 h or 72 h, CellTiter-Blue® was added and the fluorescence was recorded as described above.
(§2) Tasdemir et al. (2002) J Nat Prod 65:210-4. GI50-values of the compounds were determined in HCT-116 p21^+/+ (wt) and p21^−/− cells after 48 h using a resazurin redox dye to measure cell viability.
(§3) Methods are described above in the General Methods section.

HCT-116 p21^−/− cells = assay: cells; details: HCT-116 p21-/-
Method: as §1, §2, §3

A549 cells = assay: cells; assay type: cell-based, human; details: A549 cells, 48 h; read-out: GI50 (nM) 48 h
Excerpt: Methods are essentially as described above in the General Methods section in connection with assays using HCT-116 cells.

HCT-116 cells = assay: [3H]-serine pulse-labeling, HCT-116; assay type: cell-based, human; details: range of concentrations
Method: (§4) Sphingomyelin is biosynthesized from ceramide at the Golgi apparatus. Ceramide is primarily transported from the ER to the Golgi by ceramide transport protein (CERT), and the transport activity of CERT is both OSBP1- and VAP-A dependent. […] To determine whether the ORPphilins affect sphingomyelin synthesis, pulse-labeling with [^3H]-serine was performed in CHO-K1 and HCT-116 cells and the amount of tritium incorporated into sphingomyelin and other lipids then measured. Cells were treated with vehicle or compound for 6 h, and in the last 2 h the cells were pulsed with 10 μCi [^3H]-serine. Lipids were extracted and isolated by TLC, and label incorporation into sphingomyelin was measured by scintillation counting.

[2] = system: OSBP1 localization in A549 cells; assay: OSBP1 localization by immunofluorescence microscopy, A549; assay type: cell-based, human
Method: Immunofluorescence microscopy. HCT-116 or A549 (adenocarcinomic human alveolar basal epithelial) cells were plated on coverslips in 6-well plates. After 72 h, the culture media was removed and replaced with media containing either compound or vehicle control. At the indicated time-points, the cells were fixed for 10 min using 3.7% formaldehyde in PBS. The coverslips were washed with PBS and permeabilized for 5 min with 0.5% Triton X-100 in PBS. Following PBS washing, the coverslips were blocked for 30 min using Image-iT™ FX (Invitrogen), washed with PBS, and then blocked for 30 min at room temperature (RT) with 1% BSA in PBS (BSA/PBS). The coverslips were then incubated overnight at 4° C. with a primary antibody solution in BSA/PBS. The coverslips were washed with BSA/PBS and incubated for 60 min at RT with Alexa Fluor®-conjugated secondary antibodies (Invitrogen) in BSA/PBS, with the final 30 min including incubation with Hoescht 33258. The coverslips were then washed sequentially with BSA/PBS, PBS, and water and finally mounted on microscope slides using Aqua Poly/Mount (Polysciences Inc.). Imaging data was acquired using Zeiss LSM 510 META scanning confocal microscope.
Perturbations of OSBP1 localization by 1, 2, and 4b in A549 cells were also observed.

[3] = system: CERT protein levels in HCT-116 cells or A549 cells; assay: CERT protein levels; assay type: cell-based, human; details: high dose (GI90)
Method: Suppression of CERT expression is reported to cause a significant reduction in basal SM biosynthesis. Therefore, 1 and 2 were tested for their ability to induce a reduction in CERT levels, akin to the effects of 1 and 2 on OSBP1 levels.

P388 tumor cells = details: single i.p. treatment of 0.01 mg/kg; cited from earlier work
HL-60 = details: cited from earlier work
normal lymphocytes = details: cited from earlier work
U87-MG = details: cited from earlier work
normal astrocytes = details: cited from earlier work
[4] = system: CLL (chronic lymphocytic leukemia) cells taken from patients; details: read-out: GI50 fludarabine-refractory CLL cells; cited from earlier work
[5] = system: glioblastoma and leukemia cells; details: cited from earlier work
tumor xenograft = details: i.p. 9.3 mg/kg (Q2Dx4); cited from earlier work
CHO-K1 cells = assay: Sphingomyelin biosynthesis, [3H]-serine pulse-labeling, CHO-K1; assay type: cell-based
Method: as §4

[6] = target: OSBP (oxysterol-binding protein) (Homo sapiens, UniProt P22059); details: cited from earlier work
OSBP (oxysterol-binding protein), sequence (P22059 whole entry, species assumed): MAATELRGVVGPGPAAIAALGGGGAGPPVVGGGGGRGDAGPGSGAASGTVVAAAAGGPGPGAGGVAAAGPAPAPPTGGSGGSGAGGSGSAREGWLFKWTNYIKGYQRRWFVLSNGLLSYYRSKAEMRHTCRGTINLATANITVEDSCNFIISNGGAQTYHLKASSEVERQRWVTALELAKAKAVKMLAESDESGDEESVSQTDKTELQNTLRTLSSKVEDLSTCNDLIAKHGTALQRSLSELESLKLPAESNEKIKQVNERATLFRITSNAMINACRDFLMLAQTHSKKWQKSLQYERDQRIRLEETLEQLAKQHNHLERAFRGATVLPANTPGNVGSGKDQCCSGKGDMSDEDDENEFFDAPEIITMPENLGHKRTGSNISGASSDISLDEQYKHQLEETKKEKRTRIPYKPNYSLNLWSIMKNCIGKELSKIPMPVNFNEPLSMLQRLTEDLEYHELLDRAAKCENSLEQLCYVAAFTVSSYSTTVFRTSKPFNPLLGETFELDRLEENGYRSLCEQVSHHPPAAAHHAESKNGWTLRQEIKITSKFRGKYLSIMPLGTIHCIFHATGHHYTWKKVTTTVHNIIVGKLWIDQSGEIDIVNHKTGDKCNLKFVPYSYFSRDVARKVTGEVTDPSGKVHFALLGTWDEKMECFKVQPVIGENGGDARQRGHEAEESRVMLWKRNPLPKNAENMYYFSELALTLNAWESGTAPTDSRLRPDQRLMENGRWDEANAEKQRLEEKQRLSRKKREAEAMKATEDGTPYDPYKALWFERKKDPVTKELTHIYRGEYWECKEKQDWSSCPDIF

COc1ccc(C(=O)O[C@H]2[C@H](O[C@@H]3[C@@H](OC(C)=O)[C@H](O[C@H]4C[C@H]5[C@@H]6CC=C7C[C@@H](O)CC[C@]7(C)[C@H]6CC[C@]5(C)[C@@]4(O)[C@H](C)C(=O)CCC(C)C)OC[C@@H]3O)OC[C@@H](O)[C@@H]2O)cc1 [OSW-1]
GI50 ([1]; read-out: GI50 (nM) 48 h p21^+/+, 48 h): 28 nM
GI50 ([1]; read-out: GI50 (nM) 72 h p21^+/+, 72 h): 1.6 ± 0.6 nM
GI50 (HCT-116 p21^−/− cells; read-out: GI50 (nM) 48 h p21^−/−, 48 h): 0.2 ± 0.03 nM
GI50 (HCT-116 p21^−/− cells; read-out: GI50 (nM) 72 h p21^−/−, 72 h): 0.04 nM
GI50 (A549 cells): 0.5 ± 0.24 nM
ceramide labeling (HCT-116 cells): no effect
OSBP1 localization [2]: induced dispersal or vesiculation of OSBP1
effect on CERT protein levels [3]: did not affect
increased life span (P388 tumor cells): 59%
GI50 (HL-60): 0.04 nM
times more active in leukemia cells versus normal lymphocytes (HL-60): 40 times
GI50 (normal lymphocytes): 1.73 nM
GI50 (U87-MG): 0.047 nM
selectivity, malignant brain tumor cells versus normal astrocytes (U87-MG): 150 fold
GI50 (normal astrocytes): 7.13 nM
GI50 [4]: 0.3 nM
fold more cytotoxic toward glioblastoma and leukemia cells than non-transformed astrocytes and lymphocytes [5]: 30-150 fold

schweinfurthin A
fold less cytotoxic than the other ORPphilins [1]: 100-300 fold
toxicity (tumor xenograft): without overt toxicity
tumor volume (tumor xenograft): reduction in tumor volume compared to vehicle-treated controls

C[C@@H]1[C@]2(O[C@H]3C=C4[C@@H]5CC[C@H]6Cc7nc8c(nc7C[C@]6(C)[C@H]5C[C@@H](O)[C@]4(C)[C@]31O)C[C@@H]1CC[C@H]3C4=CC[C@@H]5[C@H](C)[C@@]6(OC[C@]45C(=O)C[C@@H]3[C@@]1(C)C8)OC(C)(C)C[C@H]6O)O[C@](C)(CO)C[C@H]2O [cephalostatin 1, Cephalostatin 1]
OSBP1 localization [2]: induced dispersal or vesiculation of OSBP1
effect on CERT protein levels [3]: did not affect

C[C@H](CCCC(C)(C)O)[C@H]1CC[C@H]2[C@@H]3CC=C4C[C@@H](O)CC[C@]4(C)[C@H]3CC[C@]12C [Compound 25-OHC, 25-hydroxycholesterol]
increase in the biosynthesis of sphingomyelin (SM) (CHO-K1 cells; 5 μM, 6 h): ca. 4 fold
SM biosynthesis at GI90 dose (CHO-K1 cells; 15 μM): robust stimulation
Kd [6]: 37 nM
